Consider 17 compounds from patent US7659271B2, “Pyrimidine compound having dibenzylamine structure and medicament comprising the same” (Kowa Company, Ltd., priority 2007, dated 2010).

This assay concerns the target T1, CETP (Homo sapiens, UniProt P11597).
T1 construct: The CETP activity in this plasma was measured with Cholesteryl Ester Transfer Protein Activity kit; from tissue; host or cells: human plasma
T1 sequence (P11597 18-493): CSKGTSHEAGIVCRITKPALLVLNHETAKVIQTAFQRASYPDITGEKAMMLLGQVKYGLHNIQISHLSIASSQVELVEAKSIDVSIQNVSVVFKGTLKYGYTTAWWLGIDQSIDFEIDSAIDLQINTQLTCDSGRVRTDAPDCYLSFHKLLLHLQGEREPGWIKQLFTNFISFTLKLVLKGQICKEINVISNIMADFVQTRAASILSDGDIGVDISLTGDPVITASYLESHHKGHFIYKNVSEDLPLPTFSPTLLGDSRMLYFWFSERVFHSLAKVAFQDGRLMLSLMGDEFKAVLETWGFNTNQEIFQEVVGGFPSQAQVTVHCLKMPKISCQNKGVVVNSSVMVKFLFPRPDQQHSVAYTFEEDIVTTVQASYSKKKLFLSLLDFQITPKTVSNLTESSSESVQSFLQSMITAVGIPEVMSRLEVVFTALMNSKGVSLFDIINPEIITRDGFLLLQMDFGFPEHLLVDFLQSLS
In words: Measurement of CETP inhibitory action in human plasma. The following applies: incubated with compound 37° C. 4 hours, Roar Biomedical CETP Activity kit, read-out: IC50 (concentration inhibiting the CETP activity by 50%). The class given is biochemical. The method, then:
A solution obtained by dissolving an exemplary compound in polyethylene glycol/N-methyl-2-pyrrolidone (vol/vol=1/1) was added to human plasma, and the mixture was incubated in an incubator at 37° C. for 4 hours. The CETP activity in this plasma was measured with Cholesteryl Ester Transfer Protein Activity kit (Roar Biomedical, catalog No.: RB-CETP). Specifically, to each well of a 96-well plate, 95 μL of a buffer (10 mM Tris, 150 mM NaCl, 2 mM EDTA, pH 7.4), 2 μL of Donor particle and 2 μL of Acceptor particle were added, 1 μL of the human plasma after the incubation was added to the mixture, and the mixture was incubated in an incubator at 37° C. for 2 hours. After completion of the incubation, fluorescence intensity (FLU) was measured with a fluorescence plate reader (excitation wavelength: 465 nm, emission wavelength: 535 nm). In accordance with the following equation 1, the CETP activity (% of control) was obtained for the compounds of the examples for two or more concentrations. CETP activity (% of control)=(Sample FLU−Blank FLU)×100/(Control FLU−Blank FLU) (Equation 1)
In the equation, the terms have the following meanings: […]
Blank FLU: Fluorescence intensity of sample not added with plasma
Control FLU: Fluorescence intensity of plasma not added with solution of compound
Sample FLU: Fluorescence intensity of plasma added with solution of compound
A value obtained by subtracting the value of the CETP activity from 100 was defined as the CETP inhibitory rate of each exemplary compound, and a concentration inhibiting the CETP activity by 50% (IC50) was calculated for each exemplary compound from the values of the CETP inhibitory rate at two or more concentrations.
Consider `CCN(CC1CCCC1)c1cc(F)ccc1CN(c1ncc(OCCS(C)(=O)=O)cn1)C(C)c1cc(C(F)(F)F)cc(C(F)(F)F)c1` (centres unmarked) [Example 11, N-{1-[3,5-bis(trifluoromethyl)phenyl]ethyl}-N-({2-[(cyclopentylmethyl)(ethyl)amino]-4-fluorophenyl}methyl)-5-[2-(methylsulfonyl)ethoxy]pyrimidin-2-amine], for which the IC50 is 0.25 µM.
Turning to `CC(c1cc(C(F)(F)F)cc(C(F)(F)F)c1)N(Cc1cc(F)cc(F)c1N(CC1CC1)CC1CC1)c1ncc(OCCS(C)(=O)=O)cn1` (centres unmarked) [Example 47, N-({2-[bis(cyclopropylmethyl)amino]-3,5-difluorophenyl}methyl)-N-{1-[3,5-bis(trifluoromethyl)phenyl]ethyl}-5-[2-(methylsulfonyl)ethoxy]pyrimidin-2-amine], the IC50 turned out to be 0.4 µM.
In the case of `CCN(CC1CCCC1)c1cc(C(F)(F)F)ccc1CN(c1ncc(OCCS(C)(=O)=O)cn1)C(C)c1cc(C(F)(F)F)cc(C(F)(F)F)c1` (centres unmarked) [Example 16, N-{1-[3,5-bis(trifluoromethyl)phenyl]ethyl}-N-({2-[(cyclopentylmethyl)(ethyl)amino]-4-(trifluoromethyl)phenyl}methyl)-5-[2-(methylsulfonyl)ethoxy]pyrimidin-2-amine], the IC50 is 0.15 µM.
With `CCN(CC1CCCC1)c1ccc(F)cc1CN(c1ncc(OCCS(C)(=O)=O)cn1)C(C)c1cc(C(F)(F)F)cc(C(F)(F)F)c1` (centres unmarked) [Example 26, N-{1-[3,5-bis(trifluoromethyl)phenyl]ethyl}-N-({2-[(cyclopentylmethyl)(ethyl)amino]-5-fluorophenyl}methyl)-5-[2-(methylsulfonyl)ethoxy]pyrimidin-2-amine], the IC50 was determined as 0.25 µM.
For the compound `CCN(C[C@H]1CC[C@H](CC(=O)O)CC1)c1ccc(C(F)(F)F)cc1CN(c1ncc(OCCS(C)(=O)=O)cn1)C(C)c1cc(C(F)(F)F)cc(C(F)(F)F)c1` (stereo partly drawn) [Example 45, trans-{4-[({2-[({1-[3,5-bis(trifluoromethyl)phenyl]ethyl}{5-[2-(methylsulfonyl)ethoxy]pyrimidin-2-yl}amino)methyl]-4-(trifluoromethyl)phenyl}(ethyl)amino)methyl]cyclohexyl}acetic acid], the IC50 came to 0.12 µM.
In the case of `CCN(CC1CCCC1)c1c(F)cc(F)cc1CN(c1ncc(OCCS(C)(=O)=O)cn1)C(C)c1cc(C(F)(F)F)cc(C(F)(F)F)c1` (centres unmarked) [Example 7, N-{1-[3,5-bis(trifluoromethyl)phenyl]ethyl}-N-({2-[(cyclopentylmethyl)(ethyl)amino]-3,5-difluorophenyl}methyl)-5-[2-(methylsulfonyl)ethoxy]pyrimidin-2-amine] it was 0.3 µM; in that of `CCN(CC1CCCC1)c1ccccc1CN(c1ncc(OCCS(C)(=O)=O)cn1)C(C)c1cc(C(F)(F)F)cc(C(F)(F)F)c1` (centres unmarked) [Example 20, N-{1-[3,5-bis(trifluoromethyl)phenyl]ethyl}-N-({2-[(cyclopentylmethyl)(ethyl)amino]phenyl}methyl)-5-[2-(methylsulfonyl)ethoxy]pyrimidin-2-amine], 0.8 µM; in that of `CCN(CC1CCCC1)c1ccc(Br)cc1CN(c1ncc(OCCS(C)(=O)=O)cn1)C(C)c1cc(C(F)(F)F)cc(C(F)(F)F)c1` (centres unmarked) [Example 30, N-{1-[3,5-bis(trifluoromethyl)phenyl]ethyl}-N-({5-bromo-2-[(cyclopentylmethyl)(ethyl)amino]phenyl}methyl)-5-[2-(methylsulfonyl)ethoxy]pyrimidin-2-amine], 0.045 µM.
Take `CCN(CC1CCCC1)c1ccc(C(F)(F)F)cc1CN(c1ncc(OCC[S+](C)[O-])cn1)C(C)c1cc(C(F)(F)F)cc(C(F)(F)F)c1` (centres unmarked) [Example 2, N-{1-[3,5-bis(trifluoromethyl)phenyl]ethyl}-N-({2-[(cyclopentylmethyl)(ethyl)amino]-5-(trifluoromethyl)phenyl}methyl)-5-[2-(methylsulfinyl)ethoxy]pyrimidin-2-amine]: the IC50 stood at 0.04 µM.
In the case of `CCN(CC1CCCC1)c1cc(C(F)(F)F)ccc1CN(c1ncc(OCC[S+](C)[O-])cn1)C(C)c1cc(C(F)(F)F)cc(C(F)(F)F)c1` (centres unmarked) [Example 15, N-{1-[3,5-bis(trifluoromethyl)phenyl]ethyl}-N-({2-[(cyclopentylmethyl)(ethyl)amino]-4-(trifluoromethyl)phenyl}methyl)-5-[2-(methylsulfinyl)ethoxy]pyrimidin-2-amine] it was 0.3 µM.
To `CCN(CC1CCCC1)c1cc(Br)ccc1CN(c1ncc(OCCS(C)(=O)=O)cn1)C(C)c1cc(C(F)(F)F)cc(C(F)(F)F)c1` (centres unmarked) [Example 28, N-{1-[3,5-bis(trifluoromethyl)phenyl]ethyl}-N-({4-bromo-2-[(cyclopentylmethyl)(ethyl)amino]phenyl}methyl)-5-[2-(methylsulfonyl)ethoxy]pyrimidin-2-amine] belongs 0.2 µM; to `CCN(CC1CCCC1)c1ccc(OC)cc1CN(c1ncc(OCCS(C)(=O)=O)cn1)C(C)c1cc(C(F)(F)F)cc(C(F)(F)F)c1` (centres unmarked) [Example 5, N-{1-[3,5-bis(trifluoromethyl)phenyl]ethyl}-N-({2-[(cyclopentylmethyl)(ethyl)amino]-5-methoxyphenyl}methyl)-5-[2-(methylsulfonyl)ethoxy]pyrimidin-2-amine], 0.05 µM; to `CCN(CC1CCCC1)c1ccc(C(F)(F)F)cc1CN(c1ncc(OCCS(C)(=O)=O)cn1)C(C)c1cc(C#N)cc(C(F)(F)F)c1` (centres unmarked) [Example 32, 3-{1-[({2-[(cyclopentylmethyl)(ethyl)amino]-5-trifluoromethylphenyl}methyl){5-[2-(methylsulfonyl)ethoxy]pyrimidin-2-yl}amino]ethyl}-5-(trifluoromethyl)benzonitrile], 0.03 µM.
In the case of `CCN(CC1CCCC1)c1cc(F)c(F)cc1CN(c1ncc(OCCS(C)(=O)=O)cn1)C(C)c1cc(C(F)(F)F)cc(C(F)(F)F)c1` (centres unmarked) [Example 22, N-{1-[3,5-bis(trifluoromethyl)phenyl]ethyl}-N-({2-[(cyclopentylmethyl)(ethyl)amino]-4,5-difluorophenyl}methyl)-5-[2-(methylsulfonyl)ethoxy]pyrimidin-2-amine] it was 0.5 µM; in that of `CCN(CC1CCCC1)c1cc(Cl)ccc1CN(c1ncc(OCCS(C)(=O)=O)cn1)C(C)c1cc(C(F)(F)F)cc(C(F)(F)F)c1` (centres unmarked) [Example 24, N-{1-[3,5-bis(trifluoromethyl)phenyl]ethyl}-N-({4-chloro-2-[(cyclopentylmethyl)(ethyl)amino]phenyl}methyl)-5-[2-(methylsulfonyl)ethoxy]pyrimidin-2-amine], 0.3 µM; in that of `CCN(CC1CCCC1)c1ccc(C)cc1CN(c1ncc(OCCS(C)(=O)=O)cn1)C(C)c1cc(C(F)(F)F)cc(C(F)(F)F)c1` (centres unmarked) [Example 9, N-{1-[3,5-bis(trifluoromethyl)phenyl]ethyl}-N-({2-[(cyclopentylmethyl)(ethyl)amino]-5-methylphenyl}methyl)-5-[2-(methylsulfonyl)ethoxy]pyrimidin-2-amine], 0.07 µM.
Take `CCN(CC1CCCC1)c1cc(OC)ccc1CN(c1ncc(OCCS(C)(=O)=O)cn1)C(C)c1cc(C(F)(F)F)cc(C(F)(F)F)c1` (centres unmarked) [Example 13, N-{1-[3,5-bis(trifluoromethyl)phenyl]ethyl}-N-({2-[(cyclopentylmethyl)(ethyl)amino]-4-methoxyphenyl}methyl)-5-[2-(methylsulfonyl)ethoxy]pyrimidin-2-amine]: the IC50 turned out to be 0.1 µM.
